For 12 compounds, TGI results are on record in PubChem BioAssay (NCI).

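Step 1: Grow cells in 96-well plates. Step 2: Expose to compound for 48 hours at 5 concentrations. Step 3: Interpolate endpoints linearly; if unreached, use highest concentration. TGI marks complete inhibition of growth.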

Test systems include SNB-19 CNS; SK-MEL-28 melanoma; OVCAR-3 ovarian; SF-295 CNS; SW-620 colon; BT-549 breast; MDA-MB-231 breast; U251 CNS; SNB-75 CNS; UACC-62 melanoma; A549 NSCLC; HCC-2998 colon; HT29 colon; RPMI-8226 leukemia; MDA-N; NCI/ADR-RES ovarian; SK-MEL-2 melanoma; HL-60(TB) leukemia.
Common to all, as to test: NCI anticancer screen, dose series, 48 h

In the case of `CCCCCCCCCCCCCCCCCCOC(COP(=O)(O)OCC1OC(n2cc(F)c(=O)[nH]c2=O)CC1O)COP(=O)(O)OCC1OC(n2ccc(N)nc2=O)C(O)C1O` (stereo unspecified), the TGI with SNB-19 CNS was 41.2 µM; in the experiment with SK-MEL-28 melanoma it was over 100 µM; with OVCAR-3 ovarian, over 100 µM; in the experiment on SF-295 CNS, over 100 µM; with SW-620 colon it was over 100 µM; in the experiment on BT-549 breast, over 93.2 µM. The TGI with MDA-MB-231 breast was over 100 µM; with U251 CNS, 50.7 µM; with SNB-75 CNS it was over 100 µM; with UACC-62 melanoma, over 100 µM; in the experiment with A549 NSCLC it was over 63.6 µM; in the experiment on HCC-2998 colon it was over 70.5 µM. The TGI in the experiment with HT29 colon, in the experiment with RPMI-8226 leukemia, in the experiment with MDA-N, in the experiment on NCI/ADR-RES ovarian, in the experiment on SK-MEL-2 melanoma and in the experiment with HL-60(TB) leukemia was over 100 µM throughout.

For `O=C(O)c1ccc(C2=Nc3cccc4cccc(c34)N2)cc1`, the TGI with SNB-19 CNS, with SK-MEL-28 melanoma, in the experiment with OVCAR-3 ovarian, with SF-295 CNS, in the experiment with SW-620 colon and in the experiment on BT-549 breast was over 100 µM in each case. Moreover, the TGI with MDA-MB-231 breast, in the experiment on U251 CNS, with SNB-75 CNS, in the experiment on UACC-62 melanoma, with A549 NSCLC and in the experiment with HCC-2998 colon was over 100 µM in each case. Further, the TGI in the experiment with HT29 colon, with RPMI-8226 leukemia, with MDA-N, with NCI/ADR-RES ovarian, with SK-MEL-2 melanoma and in the experiment on HL-60(TB) leukemia was over 100 µM throughout.

Regarding `C/C(=N\NC(N)=S)C(CN1CCCCC1)C(C1=C(O)c2ccccc2OC1)c1ccccc1` (stereo unspecified), the TGI in the experiment with SNB-19 CNS, with SK-MEL-28 melanoma, in the experiment on OVCAR-3 ovarian, with SF-295 CNS, in the experiment on SW-620 colon and with BT-549 breast was over 100 µM each time. For the same compound, the TGI in the experiment on MDA-MB-231 breast, in the experiment with U251 CNS, in the experiment with SNB-75 CNS, in the experiment with UACC-62 melanoma, with A549 NSCLC and in the experiment on HCC-2998 colon was over 100 µM in each case. In addition, the TGI was over 100 µM in the experiment with HT29 colon; 73.6 µM in the experiment with RPMI-8226 leukemia; over 100 µM in the experiment on MDA-N; over 100 µM with NCI/ADR-RES ovarian; over 100 µM in the experiment on SK-MEL-2 melanoma; 88.4 µM in the experiment with HL-60(TB) leukemia.

Take `N#CC(C#N)=C(N)/C(C#N)=C/c1ccc(O)c(O)c1`: the TGI in the experiment on SNB-19 CNS, with SK-MEL-28 melanoma, with OVCAR-3 ovarian, in the experiment on SF-295 CNS, in the experiment with SW-620 colon and in the experiment with BT-549 breast was over 100 µM each time. Further, the TGI with MDA-MB-231 breast, in the experiment on U251 CNS, in the experiment on SNB-75 CNS, in the experiment on UACC-62 melanoma, in the experiment on A549 NSCLC and in the experiment with HCC-2998 colon was over 100 µM each time. Besides, the TGI with HT29 colon is over 100 µM; in the experiment with RPMI-8226 leukemia, over 100 µM; with MDA-N, over 100 µM; in the experiment on NCI/ADR-RES ovarian, over 100 µM; in the experiment with SK-MEL-2 melanoma, over 100 µM; in the experiment with HL-60(TB) leukemia, over 83.3 µM.

On to `CCOC(=O)/C=C(/C(=O)OCC)n1cc(C)c(=O)[nH]c1=O`, for which the TGI in the experiment with SNB-19 CNS worked out at 32.2 µM; with SK-MEL-28 melanoma, 15.5 µM; with OVCAR-3 ovarian, 6.71 µM; with SF-295 CNS it was 31.6 µM; in the experiment on SW-620 colon, 4.84 µM; in the experiment on BT-549 breast it was 22.8 µM. Besides, the TGI in the experiment with MDA-MB-231 breast amounted to 18.4 µM; with U251 CNS it was 18.8 µM; with SNB-75 CNS, 23.7 µM; in the experiment on UACC-62 melanoma, 15.8 µM; in the experiment with A549 NSCLC it was 31.5 µM; in the experiment on HCC-2998 colon, 17.5 µM. In addition, the TGI with HT29 colon turned out to be 15.1 µM; with RPMI-8226 leukemia, 5.68 µM; with MDA-N, 17.7 µM; with NCI/ADR-RES ovarian, 33.7 µM; with SK-MEL-2 melanoma, 18.4 µM; in the experiment with HL-60(TB) leukemia, 3.91 µM.

As for `Oc1c(O)c(Cc2ccccc2)c(Cc2ccccc2)c(Cc2ccccc2)c1Cc1ccccc1`, the TGI in the experiment on SNB-19 CNS, with SK-MEL-28 melanoma, in the experiment with OVCAR-3 ovarian, with SF-295 CNS, with SW-620 colon and with BT-549 breast was over 10 µM in each case. Also, the TGI with MDA-MB-231 breast, with U251 CNS, with SNB-75 CNS, in the experiment with UACC-62 melanoma, in the experiment with A549 NSCLC and in the experiment on HCC-2998 colon was over 10 µM throughout. For the same compound, the TGI in the experiment with HT29 colon, in the experiment with RPMI-8226 leukemia, in the experiment with MDA-N, in the experiment on NCI/ADR-RES ovarian, in the experiment on SK-MEL-2 melanoma and in the experiment on HL-60(TB) leukemia was over 10 µM in each case.

Regarding `CNC(=O)OCC1=C(COC(=O)NC)CN(c2ccc(OC)cc2)C1`, the TGI in the experiment on SNB-19 CNS, in the experiment on SK-MEL-28 melanoma, in the experiment on OVCAR-3 ovarian, with SF-295 CNS, in the experiment on SW-620 colon and in the experiment with BT-549 breast was over 100 µM each time. Also, the TGI in the experiment on MDA-MB-231 breast, in the experiment with U251 CNS, in the experiment on SNB-75 CNS, in the experiment on UACC-62 melanoma, with A549 NSCLC and in the experiment on HCC-2998 colon was over 100 µM in each case. In addition, the TGI in the experiment on HT29 colon, in the experiment on RPMI-8226 leukemia, in the experiment on MDA-N, with NCI/ADR-RES ovarian, with SK-MEL-2 melanoma and in the experiment with HL-60(TB) leukemia was over 100 µM each time.

With `Cc1cc(=O)[nH]c(Sc2ccc([N+](=O)[O-])cc2[N+](=O)[O-])n1`, the TGI in the experiment with SNB-19 CNS was over 66.8 µM; with SK-MEL-28 melanoma, 38.4 µM; with OVCAR-3 ovarian, 31.2 µM; in the experiment on SF-295 CNS, over 76.4 µM; with SW-620 colon it was 18.1 µM; with BT-549 breast, 26.8 µM. For the same compound, the TGI with MDA-MB-231 breast came to 46.9 µM; in the experiment with U251 CNS it was 46.3 µM; in the experiment with SNB-75 CNS, 39.9 µM; in the experiment on UACC-62 melanoma it was 41.4 µM; with A549 NSCLC it was 40.2 µM; in the experiment with HCC-2998 colon, 30.6 µM. The TGI is 19.1 µM in the experiment with HT29 colon; 18.7 µM in the experiment with RPMI-8226 leukemia; 40.8 µM in the experiment with MDA-N; over 66.3 µM with NCI/ADR-RES ovarian; 46.4 µM with SK-MEL-2 melanoma; 11.3 µM in the experiment with HL-60(TB) leukemia.

With `Cc1cc(=O)[nH]c(S(=O)(=O)NC(=O)Nc2cccc(Cl)c2)n1`, the TGI in the experiment on SNB-19 CNS, with SK-MEL-28 melanoma, with OVCAR-3 ovarian, with SF-295 CNS, in the experiment with SW-620 colon and with BT-549 breast was over 100 µM throughout. Further, the TGI in the experiment on MDA-MB-231 breast, in the experiment with U251 CNS, with SNB-75 CNS, in the experiment on UACC-62 melanoma, in the experiment on A549 NSCLC and in the experiment on HCC-2998 colon was over 100 µM throughout. Further, the TGI in the experiment with HT29 colon is over 100 µM; in the experiment on RPMI-8226 leukemia it was over 100 µM; in the experiment on MDA-N it was over 100 µM; in the experiment on NCI/ADR-RES ovarian, over 100 µM; with SK-MEL-2 melanoma it was over 100 µM; in the experiment on HL-60(TB) leukemia, over 31.2 µM.

Take `N#Cc1n[nH]n(-c2ccccc2)c1=O`: the TGI in the experiment with SNB-19 CNS, with SK-MEL-28 melanoma, in the experiment with OVCAR-3 ovarian, in the experiment with SF-295 CNS, in the experiment on SW-620 colon and in the experiment with BT-549 breast was over 100 µM in each case. Moreover, the TGI in the experiment with MDA-MB-231 breast, in the experiment on U251 CNS, with SNB-75 CNS, in the experiment on UACC-62 melanoma, in the experiment with A549 NSCLC and in the experiment with HCC-2998 colon was over 100 µM throughout. The TGI in the experiment on HT29 colon, with RPMI-8226 leukemia, in the experiment with MDA-N, in the experiment with NCI/ADR-RES ovarian, in the experiment with SK-MEL-2 melanoma and in the experiment with HL-60(TB) leukemia was over 100 µM each time.

For the compound `Clc1ccc(C2=Cc3nc2c(-c2ccccc2)c2ccc([nH]2)c(-c2ccccc2)c2nc(c(-c4ccccc4)c4ccc([nH]4)c3-c3ccccc3)C=C2)cc1`, the TGI in the experiment with SNB-19 CNS, in the experiment with SK-MEL-28 melanoma, in the experiment on OVCAR-3 ovarian, with SF-295 CNS, with SW-620 colon and in the experiment with BT-549 breast was over 62.5 µM each time. Besides, the TGI in the experiment on MDA-MB-231 breast, in the experiment with U251 CNS, with SNB-75 CNS, in the experiment with UACC-62 melanoma, with A549 NSCLC and in the experiment on HCC-2998 colon was over 62.5 µM in each case. The TGI in the experiment on HT29 colon, with RPMI-8226 leukemia, in the experiment on MDA-N, in the experiment with NCI/ADR-RES ovarian, in the experiment with SK-MEL-2 melanoma and in the experiment with HL-60(TB) leukemia was over 62.5 µM in each case.

In the case of `COc1ccccc1CC1(O)OC(=O)c2ccccc21` (stereo unspecified), the TGI in the experiment on SNB-19 CNS, with SK-MEL-28 melanoma, with OVCAR-3 ovarian, in the experiment on SF-295 CNS, with SW-620 colon and in the experiment on BT-549 breast was over 100 µM throughout. The TGI in the experiment on MDA-MB-231 breast, with U251 CNS, in the experiment on SNB-75 CNS, in the experiment on UACC-62 melanoma, in the experiment with A549 NSCLC and with HCC-2998 colon was over 100 µM throughout. Further, the TGI with HT29 colon, with RPMI-8226 leukemia, with MDA-N, in the experiment on NCI/ADR-RES ovarian, in the experiment on SK-MEL-2 melanoma and with HL-60(TB) leukemia was over 100 µM in each case.
